Measurements published in patent US10829520B2, “Beta-hairpin peptidomimetics” (POLYPHOR AG, priority 2015, dated 2020).
Where a SMILES comes first, the peptide text is derived from it. Bridges are numbered along the chain shown (N, C = ends). Roman numbers before positions name the chains, in order. [ ]: non-standard residue; d: D form. Tle = CC(C)(C)[C@H](N)C(=O)O; dNle = CCCC[C@@H](N)C(=O)O; dDab = NCC[C@@H](N)C(=O)O; Nle = CCCC[C@H](N)C(=O)O; Orn = NCCC[C@H](N)C(=O)O; Dab = NCC[C@H](N)C(=O)O

Tests used:
Type in all cases: cell-based
[1] = system: human red blood cells (hRBC); assay: Hemolysis of human red blood cells; conditions: red cells of human, 1 h
How it was run: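 hRBC washed 3× PBS; 20% v/v, ~0.9×10^9 cells/mL final. Peptide 100 μg/mL, 1 h, 37° C., 300 rpm. Spin, supernatant diluted 8×, OD540. 0% = PBS + 0.001% acetic acid; 100% = 2.5% Triton X-100. % hemolysis = OD540 peptide/OD540 full lysis × 100.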

[2] = system: Klebsiella pneumoniae 968733; conditions: 968733
[3] = system: Pseudomonas aeruginosa ATCC 27853; conditions: ATCC 27853
How it was run: (§1)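 Peptide stocks (1 mg/mL, water) were diluted two-fold into MH-II broth with 0.002% P-80 and mixed with approx. 10^6 CFU/mL bacteria. Plates were read visually after 18-20 hours at 35° C, with MIC expressed in μg/mL per CLSI.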

Escherichia coli 926415 = conditions: 926415
[4] = system: Klebsiella pneumoniae SSI #3010; conditions: SSI #3010
How it was run: as §1

[5] = system: Escherichia coli ATCC 25922; conditions: ATCC 25922
How it was run: as §1

[6] = system: Acinetobacter baumannii 872842; conditions: 872842
[7] = system: Acinetobacter baumannii DSM 30008; conditions: DSM 30008
How it was run: as §1

Row | SMILES | Hemolysis at 100 μg/mL ([1]; 100 μg/mL) | Klebsiella pneumoniae 968733 MIC [2] | Pseudomonas aeruginosa ATCC 27853 MIC [3] | Escherichia coli 926415 MIC (Escherichia coli 926415) | Klebsiella pneumoniae SSI #3010 MIC [4] | Escherichia coli ATCC 25922 MIC [5] | Acinetobacter baumannii 872842 MIC [6] | Acinetobacter baumannii DSM 30008 MIC [7] | Hemolysis at 100 μg/mL [1]; 100
1 | CCCC[C@@H]1NC(=O)[C@@H]2CCCN2C(=O)[C@H]2CCCN2C(=O)[C@H](CO)NC(=O)[C@H](C)NC(=O)[C@H](C(C)(C)C)NC(=O)[C@H](CCN)NC(=O)[C@H](Cc2c[nH]c3ccccc23)NC(=O)[C@@H](NC(C)=O)CSSC[C@@H](C(N)=O)NC(=O)[C@H](CCC(=O)N[C@H](CCN)C(=O)N[C@H]2CCNC(=O)[C@H]([C@@H](C)O)NC(=O)[C@H](CCN)NC(=O)[C@H](CCN)NC(=O)[C@H](CC(C)C)NC(=O)[C@@H](Cc3ccccc3)NC(=O)[C@H](CCN)NC2=O)NC(=O)[C@H](CCN)NC(=O)[C@H](Cc2ccc(O)cc2)NC(=O)[C@H](CO)NC1=O [Ex. 194] (I: Ac-CW[Dab][Tle]AS[dP]P[Nle]SY[Dab]EC-NH2 / II: [dDab][Dab][Dab][dF]L[Dab][Dab]T; disulfide I:1-I:14; amide I:13-II:N; lactam II:2-II:C) | <1% | 2 µg/mL | 2 µg/mL | 1 µg/mL | 0.5 µg/mL | 0.25 µg/mL | 2 µg/mL | 0.5 µg/mL | 
2 | CCCC[C@@H]1NC(=O)[C@@H]2CCCN2C(=O)[C@H]2CCCN2C(=O)[C@H](CO)NC(=O)[C@H](C)NC(=O)[C@H](C(C)(C)C)NC(=O)[C@H](CCN)NC(=O)[C@H](Cc2c[nH]c3ccccc23)NC(=O)[C@@H](NC(C)=O)CCNC(=O)CC[C@@H](C(=O)N[C@H](CCN)C(=O)N[C@H]2CCNC(=O)[C@H]([C@@H](C)O)NC(=O)[C@H](CCN)NC(=O)[C@H](CCN)NC(=O)[C@H](CC(C)C)NC(=O)[C@@H](CC(C)C)NC(=O)[C@H](CCN)NC2=O)NC(=O)[C@H](CCCN)NC(=O)[C@H](CCN)NC(=O)[C@H](Cc2ccc(O)cc2)NC(=O)[C@H](CO)NC1=O [Ex. 196] (Ac-[Dab]W[Dab][Tle]AS[dP]P[Nle]SY[Dab][Orn]E[dDab][Dab][Dab][dL]L[Dab][Dab]T; lactam 1-14, 16-C) |  | 0.5 µg/mL | 1 µg/mL | 0.125 µg/mL | 0.25 µg/mL | 0.125 µg/mL | 0.5 µg/mL | 0.25 µg/mL | <1%
3 | CCCC[C@@H]1NC(=O)[C@@H]2CCCN2C(=O)[C@H]2CCCN2C(=O)[C@H](CO)NC(=O)[C@H](C)NC(=O)[C@H](C(C)(C)C)NC(=O)[C@H](CCN)NC(=O)[C@H](Cc2c[nH]c3ccccc23)NC(=O)[C@@H](NC(C)=O)CCNC(=O)CC[C@@H](C(=O)N[C@H](CCN)C(=O)N[C@H]2CCNC(=O)[C@H]([C@@H](C)O)NC(=O)[C@H](CCN)NC(=O)[C@H](CCN)NC(=O)[C@H](CC(C)C)NC(=O)[C@@H](Cc3ccccc3)NC(=O)[C@H](CCN)NC2=O)NC(=O)[C@H](CCCN)NC(=O)[C@H](CCN)NC(=O)[C@H](Cc2ccc(O)cc2)NC(=O)[C@H](CO)NC1=O [Ex. 197] (Ac-[Dab]W[Dab][Tle]AS[dP]P[Nle]SY[Dab][Orn]E[dDab][Dab][Dab][dF]L[Dab][Dab]T; lactam 1-14, 16-C) |  | 2 µg/mL | 2 µg/mL | 0.25 µg/mL | 0.25 µg/mL | 0.0625 µg/mL | 4 µg/mL | 0.5 µg/mL | 2%
4 | CCCC[C@@H]1NC(=O)[C@@H]2CCCN2C(=O)[C@H]2CCCN2C(=O)[C@H](CO)NC(=O)[C@H](C)NC(=O)[C@H](C(C)(C)C)NC(=O)[C@H](CCN)NC(=O)[C@H](Cc2c[nH]c3ccccc23)NC(=O)[C@@H](N)CCC(=O)NCC[C@@H](C(=O)N[C@H](CCN)C(=O)N[C@H]2CCNC(=O)[C@H]([C@@H](C)O)NC(=O)[C@H](CCN)NC(=O)[C@H](CCN)NC(=O)[C@H](CC(C)C)NC(=O)[C@@H](Cc3ccccc3)NC(=O)[C@H](CCN)NC2=O)NC(=O)[C@H](CCCN)NC(=O)[C@H](CCN)NC(=O)[C@H](Cc2ccc(O)cc2)NC(=O)[C@H](CO)NC1=O [Ex. 198] (H-EW[Dab][Tle]AS[dP]P[Nle]SY[Dab][Orn][Dab][dDab][Dab][Dab][dF]L[Dab][Dab]T; lactam 1-14, 16-C) |  | 1 µg/mL | 0.5 µg/mL | 0.5 µg/mL | 0.125 µg/mL | 0.0625 µg/mL | 1 µg/mL | 0.25 µg/mL | 1%
5 | CCCC[C@@H]1NC(=O)[C@@H]2CCCN2C(=O)[C@H]2CCCN2C(=O)[C@H](CO)NC(=O)[C@H](CO)NC(=O)[C@H](C(C)(C)C)NC(=O)[C@H](CCN)NC(=O)[C@H](Cc2c[nH]c3ccccc23)NC(=O)[C@@H](N)CSSC[C@@H](C(=O)N[C@@H](C)C(=O)N[C@H](CCN)C(=O)N[C@H]2CCNC(=O)[C@H]([C@@H](C)O)NC(=O)[C@H](CCN)NC(=O)[C@H](CCN)NC(=O)[C@H](CC(C)C)NC(=O)[C@@H](Cc3ccccc3)NC(=O)[C@H](CCN)NC2=O)NC(=O)[C@H](CCCN)NC(=O)[C@H](CCN)NC(=O)[C@H](Cc2ccc(O)cc2)NC(=O)[C@H](CO)NC1=O [Ex. 199] (H-CW[Dab][Tle]SS[dP]P[Nle]SY[Dab][Orn]CA[dDab][Dab][Dab][dF]L[Dab][Dab]T; disulfide 1-14; lactam 17-C) | <1% | 4 µg/mL | 2 µg/mL | 0.5 µg/mL | 0.5 µg/mL | 0.25 µg/mL | 0.5 µg/mL | 2 µg/mL | 
6 | CCCC[C@@H]1NC(=O)[C@@H]2CCCN2C(=O)[C@H]2CCCN2C(=O)[C@H](CO)NC(=O)[C@H](CO)NC(=O)[C@H](C(C)(C)C)NC(=O)[C@H](CCN)NC(=O)[C@H](Cc2c[nH]c3ccccc23)NC(=O)[C@@H](N)CSSC[C@@H](C(=O)N[C@H](CCCC)C(=O)N[C@H](CCN)C(=O)N[C@H]2CCNC(=O)[C@H]([C@@H](C)O)NC(=O)[C@H](CCN)NC(=O)[C@H](CCN)NC(=O)[C@H](CC(C)C)NC(=O)[C@@H](Cc3ccccc3)NC(=O)[C@H](CCN)NC2=O)NC(=O)[C@H](CCCN)NC(=O)[C@H](CCN)NC(=O)[C@H](Cc2ccc(O)cc2)NC(=O)[C@H](CO)NC1=O [Ex. 200] (H-CW[Dab][Tle]SS[dP]P[Nle]SY[Dab][Orn]C[dNle][dDab][Dab][Dab][dF]L[Dab][Dab]T; disulfide 1-14; lactam 17-C) | <1% | 1 µg/mL | 2 µg/mL | 0.5 µg/mL | 0.25 µg/mL | 0.125 µg/mL | 1 µg/mL | 0.5 µg/mL | 
7 | CCCC[C@@H]1NC(=O)[C@@H]2CCCN2C(=O)[C@H]2CCCN2C(=O)[C@H](CO)NC(=O)[C@H](CO)NC(=O)[C@H](C(C)(C)C)NC(=O)[C@H](CCN)NC(=O)[C@H](Cc2c[nH]c3ccccc23)NC(=O)[C@@H](N)CSSC[C@@H](C(=O)N[C@@H](Cc2ccc(O)cc2)C(=O)N[C@H](CCN)C(=O)N[C@H]2CCNC(=O)[C@H]([C@@H](C)O)NC(=O)[C@H](CCN)NC(=O)[C@H](CCN)NC(=O)[C@H](CC(C)C)NC(=O)[C@@H](Cc3ccccc3)NC(=O)[C@H](CCN)NC2=O)NC(=O)[C@H](CCCN)NC(=O)[C@H](CCN)NC(=O)[C@H](Cc2ccc(O)cc2)NC(=O)[C@H](CO)NC1=O [Ex. 201] (H-CW[Dab][Tle]SS[dP]P[Nle]SY[Dab][Orn]CY[dDab][Dab][Dab][dF]L[Dab][Dab]T; disulfide 1-14; lactam 17-C) | <1% | 8 µg/mL | 1 µg/mL | 0.5 µg/mL | 1 µg/mL | 0.25 µg/mL | 0.5 µg/mL | 1 µg/mL | 
